Results taken from the supplement of paper PMC10883282.
Structures can show the parent of a compound that is named as a salt.

Legend:
Test in all cases: relative viability vs DMSO control (72 h) (fraction); higher = more viable cells
SW1353 = tested on: SW1353
In short: (§1)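 ATPLite readings, expressed as percent growth and averaged over up to triplicate wells, provided relative viability. Before reading, sarcoma cell lines seeded in 384-well plates to reach 80–90% confluence received 2.5 µl of serially diluted compound after 24 h, from source plates of 10 mM to 0.0002 mM. Plates were held 72 h at 37 °C, 5% CO2, with 0.1% DMSO as vehicle and a 5 µM positive control. The data were rescaled to 1 for full and 0 for none.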

SW982 = tested on: SW982
In short: as §1

HT1080 = tested on: HT1080
In short: as §1

RD-ES = tested on: RD-ES
In short: as §1

KHOS-240S = tested on: KHOS-240S
In short: as §1

Clc1ccc(Nc2nnc(Cc3ccncc3)c3ccccc23)cc1 [Vatalanib]
relative viability
Conditions	HT1080	KHOS-240S	RD-ES	SW982	SW1353
0.00017 µM	1.01	1.03	0.987	1.03	0.9762
0.00051 µM	0.995	1.06	0.954	1.02	0.9786
0.00152 µM	0.989	1.05	0.975	1.04	0.939
0.00457 µM	1.01	1.04	0.983	1.05	0.962
0.01372 µM	0.993	1.04	0.967	1.06	0.935
0.04115 µM	0.9838	1.01	0.959	1.0899	0.9589
0.1235 µM	0.986	1.04	0.965	1.065	0.966
0.3704 µM	1	1.03	0.956	1.04	0.978
1.111 µM	1.021	0.986	0.989	1.03	0.93
3.333 µM	1.02	1.01	0.98	1.053	0.934
10 µM	1.07	1	0.947	1.03	0.881

C=C1C[C@@H]2CC[C@@]34C[C@H]5O[C@H]6[C@@H](O3)[C@H]3O[C@H](CC[C@@H]3O[C@H]6[C@H]5O4)CC(=O)C[C@@H]3[C@@H](OC)[C@@H](C[C@H](O)CN)O[C@H]3C[C@H]3O[C@@H](CC[C@@H]1O2)C[C@@H](C)C3=C [Eribulin Mesylate]
relative viability
Conditions	HT1080	KHOS-240S	RD-ES	SW982	SW1353
1.37 pM	1.1	1.11	1.04	1.061	1.13
4.1 pM	1.08	1.09	1.02	1.08	1.08
12.3 pM	1	1.1	0.953	1.05	1.06
37 pM	0.959	0.9987	0.472	1.04	0.975
0.00011 µM	0.779	0.655	0.0831	0.801	0.935
0.00033 µM	0.178	0.504	0.0672	0.523	0.702
0.001 µM	0.08945	0.365	0.041	0.41	0.56
0.003 µM	0.06	0.245	0.0209	0.336	0.497
0.009 µM	0.0428	0.179	0.0188	0.307	0.474
0.027 µM	0.043	0.15	0.0232	0.309	0.441
460 fM	1.054	1.07	1.02	1.02	1.16

Cc1cc2c(F)c(Oc3ncnn4cc(OC[C@@H](C)O)c(C)c34)ccc2[nH]1 [Brivanib]
relative viability
Conditions	HT1080	KHOS-240S	RD-ES	SW982	SW1353
0.00017 µM	1.04	1.04	0.961	1.03	0.963
0.00051 µM	1.026	1.035	0.966	1.03	0.991
0.00152 µM	1.05	1.03	0.985	1.05	0.952
0.00457 µM	1.06	1.05	1	1.07	0.96
0.01372 µM	1.07	1.05	0.996	1.05	0.976
0.04115 µM	1.02	1.04	1	1.05	0.935
0.1235 µM	1.02	1.04	1.01	1.035	0.944
0.3704 µM	1.06	1.05	0.994	1.06	1.01
1.111 µM	1.05	1.03	1	1.034	0.982
3.333 µM	1.07	1.041	0.988	1.07	1
10 µM	1.01	0.961	0.947	1.06	0.997

CC(C)(O)CNc1nc(Nc2ccnc(C(F)(F)F)c2)nc(-c2cccc(C(F)(F)F)n2)n1 [Enasidenib]
relative viability
Conditions	HT1080	KHOS-240S	RD-ES	SW982	SW1353
0.00017 µM	1.07	1.08	0.965	1.04	0.997
0.00051 µM	1.076	1.06	1	1.04	1.03
0.00152 µM	1.08	1.053	1.02	1.05	0.99
0.00457 µM	1.07	1.06	1.01	1.06	1.02
0.01372 µM	1.042	1.08	1.012	1.05	1.03
0.04115 µM	1.064	1.073	0.9861	1.06	1.01
0.1235 µM	1.05	1.09	1.01	1.06	1.01
0.3704 µM	1.1	1.09	1.02	1.102	1.04
1.111 µM	1.16	1.09	1.01	1.129	0.9847
3.333 µM	1.11	1.081	1.02	1.18	0.994
10 µM	0.978	0.989	1	1.22	0.86

O=c1sn(-c2cccc3ccccc23)c(=O)n1Cc1ccccc1 [Tideglusib]
relative viability
Conditions	HT1080	KHOS-240S	RD-ES	SW982	SW1353
0.00017 µM	1.06	1.05	1.01	1.07	1.07
0.00051 µM	1.08	1.07	1.03	1.09	1.05
0.00152 µM	1.07	1.09	1.02	1.08	1.08
0.00457 µM	1.1	1.07	1.02	1.11	1.04
0.01372 µM	1.069	1.08	1.02	1.11	1.02
0.04115 µM	1.07	1.07	1.01	1.11	1.05
0.1235 µM	1.06	1.07	1.03	1.1	1.03
0.3704 µM	1.09	1.06	1.01	1.09	0.966
1.111 µM	1.07	1.03	1.01	1.068	1.01
3.333 µM	1.097	1.01	1	1.08	0.987
10 µM	1.02	0.993	0.992	1.05	0.827

C[C@]12O[C@H](C[C@]1(O)CO)n1c3ccccc3c3c4c(c5c6ccccc6n2c5c31)CNC4=O [Lestaurtinib]
relative viability
Conditions	HT1080	KHOS-240S	RD-ES	SW982	SW1353
0.00017 µM	1.09	1.086	0.996	1.03	1.04
0.00051 µM	1.11	1.06	1	1.03	1.01
0.00152 µM	1.1	1.1	0.999	1.06	1
0.00457 µM	1.12	1.04	0.989	1.03	0.975
0.01372 µM	1.09	1.06	0.936	0.895	0.943
0.04115 µM	1.12	1.05	0.804	0.697	0.868
0.1235 µM	0.915	0.892	0.497	0.494	0.756
0.3704 µM	0.877	0.525	0.288	0.381	0.698
1.111 µM	0.689	0.345	0.16	0.314	0.6462
3.333 µM	0.185	0.169	0.0482	0.23	0.375
10 µM	0.0222	0.0619	0.0633	0.0243	0.155

CC[C@@H]1CN(C(=O)NCC(F)(F)F)C[C@@H]1c1cnc2cnc3[nH]ccc3n12 [Upadacitinib]
relative viability
Conditions	HT1080	KHOS-240S	RD-ES	SW982	SW1353
0.00017 µM	1.06	1.09	0.981	1.01	1.04
0.00051 µM	1.06	1.06	0.979	1.022	1.04
0.00152 µM	1.08	1.09	1	1.05	1.02
0.00457 µM	1.05	1.1	0.979	1.05	1.04
0.01372 µM	1.07	1.08	1	1.052	0.997
0.04115 µM	1.06	1.09	0.99	1.04	1.01
0.1235 µM	1.05	1.06	0.97	1.06	1.001
0.3704 µM	1.062	1.04	0.974	1.043	0.942
1.111 µM	1.035	0.982	0.964	1	0.937
3.333 µM	1.01	0.919	0.996	0.969	0.84
10 µM	0.9733	0.708	0.989	0.779	0.686

Cn1cc(C2=C(c3cn(C4CCN(Cc5ccccn5)CC4)c4ccccc34)C(=O)NC2=O)c2ccccc21 [Enzastaurin]
relative viability
Conditions	HT1080	KHOS-240S	RD-ES	SW982	SW1353
0.00017 µM	1.14	1.06	0.992	1.06	1.1
0.00051 µM	1.14	1.1	0.997	1.06	1.09
0.00152 µM	1.11	1.08	1	1.08	1.104
0.00457 µM	1.11	1.09	1.01	1.08	1.1
0.01372 µM	1.12	1.1	0.996	1.08	1.08
0.04115 µM	1.14	1.09	1.01	1.069	1.09
0.1235 µM	1.14	1.07	1.01	1.05	1.07
0.3704 µM	1.11	1.08	0.981	1.06	1.04
1.111 µM	1.15	1.08	1.02	1.012	0.949
3.333 µM	1.37	1.01	1.02	0.903	0.857
10 µM	1.365	0.732	1.04	0.679	0.809

COc1cc(OC)c(/C=C/S(=O)(=O)Cc2ccc(OC)c(NCC(=O)O)c2)c(OC)c1 [Rigosertib]
relative viability
Conditions	HT1080	KHOS-240S	RD-ES	SW982	SW1353
0.00017 µM	1.07	1.06	0.999	1.06	1
0.00051 µM	1.03	1.07	1	1.04	1.01
0.00152 µM	1.07	1.051	1	1.05	0.994
0.00457 µM	1.06	1.05	0.993	1.07	0.989
0.01372 µM	1.05	1.03	1.01	1.07	0.992
0.04115 µM	1.08	0.981	1	1.06	0.968
0.1235 µM	1.06	0.385	0.732	0.92	0.932
0.3704 µM	0.412	0.228	0.143	0.52	0.702
1.111 µM	0.0983	0.168	0.0474	0.26	0.426
3.333 µM	0.0596	0.15	0.031	0.256	0.428
10 µM	0.0541	0.135	0.027	0.273	0.429

COc1cc(Nc2ncc(F)c(Nc3ccc4c(n3)N(COP(=O)(O)O)C(=O)C(C)(C)O4)n2)cc(OC)c1OC [Fostamatinib]
relative viability
Conditions	HT1080	KHOS-240S	RD-ES	SW982	SW1353
0.00017 µM	1.06	1.08	0.9556	1.05	0.996
0.00051 µM	1.07	1.08	0.964	1.05	0.997
0.00152 µM	1.08	1.08	0.9726	1.04	0.997
0.00457 µM	1.07	1.08	0.958	1.06	1.01
0.01372 µM	1.06	1.07	0.972	1.053	0.9999
0.04115 µM	1.06	1.07	0.9768	1.02	0.965
0.1235 µM	1.09	1.01	0.943	0.822	0.8997
0.3704 µM	1.101	0.892	0.792	0.66	0.773
1.111 µM	1.06	0.559	0.715	0.507	0.6
3.333 µM	0.937	0.196	0.484	0.216	0.296
10 µM	0.658	0.0301	0.144	0.128	0.256
